Values after ≈ are worked out from the molar mass of the structure shown. “Also recorded” adds a separate entry of the source. Read-outs that look alike come from different tables or passages of the source. Where a SMILES comes first, the peptide text is derived from it. Bridges are numbered along the chain shown (N, C = ends). [ ]: non-standard residue; d: D form. The star is where a group is joined. Octanoyl = CCCCCCCC(=O)*; Dab = NCC[C@H](N)C(=O)O; Abu = CC[C@H](N)C(=O)O
Key:
P. aeruginosa JMI 7445 = settings: P. aeruginosa JMI 7445
[1] = 7-day IV infusion toxicity (nephrotoxicity) study in cynomolgus monkeys; settings: for unscheduled necropsy / euthanized due to severe nephrotoxic effects: 3 animals per group
Description: In vivo toxicity and toxicokinetic studies were performed by using cynomolgus monkeys. The laboratory that performed the animal studies is accredited by the Association for Assessment and Accreditation of Laboratory Animal Care (AAALAC), has an Animal Welfare Assurance issued by the Office of Laboratory Animal Welfare (OLAW), is registered with the United States Department of Agriculture (USDA), and has an Institutional Animal Care and Use Committee (IACUC) responsible for compliance with applicable laws and regulations concerning the humane care and use of laboratory animals.
Naïve female cynomolgus monkeys were acclimatized to study room for 28 days during which each animal was implanted with a permanent indwelling femoral catheter to permit continuous intravenous infusions. The animals were allowed surgical recovery period of at least 2 weeks before initiating dosing.
Polymyxin B sulfate was from Sigma-Aldrich (catalogue number P0972, lot number BCBF8382V). On each day of use, appropriate quantities of NAB739, NAB815 or polymyxin B were weighed and dissolved in appropriate volumes of sterile saline to prepare a stock solution for each test article and positive control. A correction factor was used in the stock solution preparation to account for both the purity and sulfate content in each test article. Accordingly, the dose (such as 36 mg/kg/d) refers to the dose of the pure peptide as its free base form, not as its sulfate salt.
The doses were the following: polymyxin B 18 mg/kg/d (Group 1), polymyxin B 24 mg/kg/d (Group 2), NAB739 24 mg/kg/d (Group 3), NAB739 36 mg/kg/d (Group 4), NAB815 24 mg/kg/d (Group 5), NAB815 36 mg/kg/d (Group 6). Three animals were included in each study groups.
For seven days, the animals were dosed by intravenous (IV) infusion three times daily (TID) at a dose volume of 10 mL/kg for 1 hour (±10 minutes), 8±0.5 hours apart. The day of initial dose administration was designated study Day 1, with subsequent days consecutively numbered. Days prior to the initial dose administration were consecutively numbered with the final day of acclimation referenced as Day −1.
The following parameters were evaluated at designed intervals: clinical observations, body weights, clinical pathology (hematology, coagulation, serum chemistry, urinalysis including urine sediments and urine chemistry), toxicokinetics (plasma and urine) and anatomic pathology (kidney). In cases of animals sacrificed on an unscheduled basis, samples were taken on the day of the sacrifice.
On the day of necropsy, animals were sedated with ketamine, weighed, and anesthetized with an intravenous injection of a commercial pentobarbital and phenytoin solution, followed by exsanguinations.
At necropsy, gross observations and organ weights were recorded, and specific tissues were collected. Histopathology was conducted on sections of kidney stained with hematoxylin and eosin (H&E).
The figures also show Urine N-acetyl-β-D-glucosaminidase/urine creatinine ratio (U-NAG/Crea; FIG. 3) and Urine Gamma Glutamyltransferase/urine creatinine ratio (U-GGT/Crea; FIG. 4), both urine biomarkers for kidney injury, in those animals. S-Crea and U-Crea were measured by using an Olympus Analyzer (OA) and the modified Jaffe method, S-BUN by using OA and urease/L-glutamate dehydrogenase. U-NAG was measured by using OA/enzymatic, and U-GGT by using OA and glutamyl-carboxy-p-nitroanilide IFCC.
The presence of the following nephro-pathological parameters was recorded in each animal: tubular basophilia (re-generation), tubular degeneration/necrosis, infiltration (by mononuclear and/or mixed inflammatory cells), tubular dilatation, and tubular casts.

E. coli JMI 3328 = settings: for MIC: E. coli JMI 3328
A. baumannii ATCC 19606 = settings: A. baumannii ATCC 19606
K. pneumoniae JMI 27072 = settings: K. pneumoniae JMI 27072
K. pneumoniae ATCC 43816 = settings: K. pneumoniae ATCC 43816
P. aeruginosa = assay: Synergy studies with rifampin; assay type: cell-based, Pseudomonas aeruginosa; settings: against P. aeruginosa
Description: Synergy studies were performed by using polymyxin derivatives in combination with rifampin, a model compound for such antibacterial agents that the intact outer membrane of Gram-negative bacteria acts as a permeability barrier.

P. aeruginosa ATCC 27853 = assay: MIC assay (CLSI broth microdilution; checkerboard with rifampin); settings: P. aeruginosa ATCC 27853
E. coli JMI 109 = settings: alone; E. coli JMI 109 (polymyxin-nonsusceptible)
[2] = in combination with rifampin 0.25 μg/mL
[3] = peptide at 1 μg/mL, E. coli JM13328
[4] = alone, K. pneumoniae JMI 27068 (polymyxin-nonsusceptible)
[5] = in combination with rifampin 0.25 μg/mL, K. pneumoniae JMI 27068

Q: For `CCCCCCCC(=O)N[C@@H](CCN)C(=O)N[C@H](C(=O)N[C@@H](C(=O)N[C@H]1CCNC(=O)[C@H]([C@@H](C)O)NC(=O)[C@H](CCN)NC(=O)[C@H](CC)NC(=O)[C@H](CC(C)C)NC(=O)[C@@H](Cc2ccccc2)NC(=O)[C@H](CCN)NC1=O)[C@H](C)O)[C@@H](C)O` [NAB815, octanoyl-αDab-Thr-DThr-[cyclo-α,γDab-αDab-DPhe-Leu-Abu-αDab-Thr]] (Octanoyl-[Dab]T[dT][Dab][Dab][dF]L[Abu][Dab]T; lactam 4-C), which MIC (P. aeruginosa JMI 7445; alone) is on record?
A: 8 µg/mL (≈ 6.81 µM)

Q: What about the “kidney injury markers (S-BUN, S-Crea, U-NAG/Crea, U-GGT/Crea)” value ([1]; 24 mg/kg/d IV TID 7 days) of the same compound?
A: None of the parameters was elevated

Q: And the “kidney injury markers (S-BUN, S-Crea, U-NAG/Crea, U-GGT/Crea)” value ([1]; 36 mg/kg/d IV TID 7 days)?
A: only minor if any elevations in the four parameters

Q: And the “unscheduled necropsy / euthanized due to severe nephrotoxic effects” value (from here on “unscheduled necropsy / euthanized due”) ([1]; 36 mg/kg/d IV TID 7 days)?
A: underwent no prescheduled necropsy

Q: And the “kidney histopathology findings (grade of nephro-pathological parameters)” value ([1]; 36 mg/kg/d IV TID, H&E kidney sections, per animal(s))?
A: moderate findings, both in one parameter only; also recorded: no other than minimal or mild findings; also recorded: less severe nephropathic alterations with NAB815

Q: What about the MIC (E. coli JMI 3328; alone) of the same compound?
A: 4 µg/mL (≈ 3.4 µM)

Q: What about the MIC (E. coli JMI 3328; [2]) of the same compound?
A: 1 µg/mL

Q: What about the “MIC of rifampin in the presence of the peptide” value (E. coli JMI 3328; [3]) of the same compound?
A: 0.25 µg/mL

Q: And the “factor of decrease of the MIC of rifampin” value (E. coli JMI 3328; [3])?
A: 32

Q: What about the MIC (A. baumannii ATCC 19606; alone) of the same compound?
A: 4 µg/mL (≈ 3.4 µM)

Q: And the MIC (A. baumannii ATCC 19606; [2])?
A: 0.5 to 2 µg/mL

Q: And the MIC (K. pneumoniae JMI 27068; [4])?
A: 128 µg/mL (≈ 109 µM)

Q: And the MIC (K. pneumoniae JMI 27068; [5])?
A: 4 µg/mL

Q: And the MIC (K. pneumoniae JMI 27072; alone)?
A: 2 to 4 µg/mL

Q: And the MIC (K. pneumoniae ATCC 43816; [2])?
A: 1 µg/mL

Q: What about the “MIC of rifampin in the presence of the peptide” value (K. pneumoniae ATCC 43816; peptide at 1 μg/mL) of the same compound?
A: 0.25 µg/mL

Q: What about the “factor of decrease of the MIC of rifampin” value (K. pneumoniae ATCC 43816; peptide at 1 μg/mL) of the same compound?
A: 64

Q: And the “synergistic activity with rifampin” value (P. aeruginosa)?
A: lacked any notable synergistic activity with rifampin

Q: Which MIC (P. aeruginosa JMI 7445; alone) does the source give for Polymyxin B here?
A: 2 µg/mL

Q: And the MIC (P. aeruginosa JMI 7445; [2])?
A: 1 µg/mL

Q: And the MIC (A. baumannii JMI 48125; alone)?
A: 2 µg/mL

Q: What about the MIC (A. baumannii JMI 48125; [2]) of the same compound?
A: 1 µg/mL

Q: And the “unscheduled necropsy / euthanized due” value ([1]; 18 mg/kg/d IV TID 7 days)?
A: all the three animals receiving polymyxin B at 18 mg/kg/d had to be euthanized; also recorded: on Day 4 for one animal receiving 18 mg/kg/d; also recorded: on Day 5 for two animals receiving 18 mg/kg/d

Q: What about the “unscheduled necropsy / euthanized due” value ([1]; 24 mg/kg/d IV TID 7 days) of the same compound?
A: Two animals receiving polymyxin B at 24 mg/kg/d; also recorded: for two animals receiving 24 mg/kg/d

Q: And the “S-BUN, S-Crea and U-GGT/Crea” value ([1]; 18 and 24 mg/kg/d IV TID, all the six animals)?
A: remarkably increased

Q: What about the U-NAG/Crea ([1]; 18 and 24 mg/kg/d IV TID, six animals) of the same compound?
A: remarkably increased in five of the animals

Q: What about the MIC (E. coli JMI 3328; alone) of the same compound?
A: 2 µg/mL

Q: What about the MIC (E. coli JMI 3328; [2]) of the same compound?
A: 0.5 to 1 µg/mL

Q: What about the MIC (A. baumannii ATCC 19606; alone) of the same compound?
A: 2 µg/mL

Q: What about the MIC (A. baumannii ATCC 19606; [2]) of the same compound?
A: 0.5 µg/mL

Q: And the MIC (K. pneumoniae JMI 27068; [4])?
A: 64 µg/mL

Q: What about the MIC (K. pneumoniae JMI 27068; [5]) of the same compound?
A: 1 µg/mL

Q: And the MIC (K. pneumoniae JMI 27072; alone)?
A: 2 µg/mL

Q: And the MIC (K. pneumoniae JMI 27072; [2])?
A: 1 µg/mL

Q: And the MIC (P. aeruginosa ATCC 27853; alone)?
A: 2 µg/mL

Q: What about the MIC (P. aeruginosa ATCC 27853; [2]) of the same compound?
A: 1 µg/mL

Q: And the MIC (K. pneumoniae ATCC 43816; alone)?
A: 2 µg/mL

Q: What about the MIC (K. pneumoniae ATCC 43816; [2]) of the same compound?
A: 0.5 to 1 µg/mL

Q: And the MIC (E. coli JMI 109)?
A: 4 to 8 µg/mL
